Results on 18 molecules are retold here after US20260159512A1, “BCAT2 INHIBITORS” (AGIOS PHARMACEUTICALS, INC., priority 2021, published 2026).

Common to all, as to details: average where tested multiple times
Test [1] has as its target T1, BCAT2 (Homo sapiens, UniProt O15382).
T1 sequence (O15382 28-392): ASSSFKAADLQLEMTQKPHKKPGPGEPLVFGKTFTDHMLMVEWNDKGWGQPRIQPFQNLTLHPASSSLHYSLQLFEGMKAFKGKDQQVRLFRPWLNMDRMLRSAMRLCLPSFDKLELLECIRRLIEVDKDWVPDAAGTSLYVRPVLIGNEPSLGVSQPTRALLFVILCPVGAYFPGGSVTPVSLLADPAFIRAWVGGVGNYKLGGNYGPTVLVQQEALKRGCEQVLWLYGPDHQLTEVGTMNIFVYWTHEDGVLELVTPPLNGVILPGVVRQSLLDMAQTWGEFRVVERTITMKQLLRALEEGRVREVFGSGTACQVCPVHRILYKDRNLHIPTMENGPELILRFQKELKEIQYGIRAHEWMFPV
In words: BCAT2 in vitro enzyme inhibition assay (resazurin/diaphorase-coupled fluorescence). Type of test: biochemical. In a few lines:
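Coupled fluorescence readout: glutamate formed from L-leucine/α-ketoglutarate transamination drives GDH/NAD/diaphorase reduction of resazurin (Ex 540/Em 590). Human BCAT2 was first exposed 1 h at room temperature to compound, top final 100 μM in 3-fold, 10-point series; substrate reaction ran 1 h before SDS quench, in technical duplicate with DMSO max and enzyme-free min controls.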
(Resazurin is reduced to fluorescent resorufin, in cell work by metabolically active cells.)

The next test concerns the target T2, hBCAT1 (Homo sapiens, UniProt P54687).
T2 sequence (P54687 1-386): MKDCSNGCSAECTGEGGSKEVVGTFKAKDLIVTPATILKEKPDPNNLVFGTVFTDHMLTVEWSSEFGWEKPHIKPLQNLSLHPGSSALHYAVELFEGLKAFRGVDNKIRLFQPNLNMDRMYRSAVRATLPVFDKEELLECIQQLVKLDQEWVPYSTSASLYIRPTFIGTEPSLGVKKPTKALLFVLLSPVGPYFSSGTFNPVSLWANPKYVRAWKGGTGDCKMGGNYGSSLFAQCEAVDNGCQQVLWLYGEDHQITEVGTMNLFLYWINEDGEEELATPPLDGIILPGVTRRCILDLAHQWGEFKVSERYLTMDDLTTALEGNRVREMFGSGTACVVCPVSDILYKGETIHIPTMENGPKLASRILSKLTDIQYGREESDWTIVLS
Kind of test: BCAT1 in vitro enzyme inhibition assay (resazurin/diaphorase-coupled fluorescence). The format is biochemical. Put shortly:
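Ten-point, 3-fold compound series (top final 100 μM, delivered 1:50 from 50× DMSO stocks) tested against hBCAT1. Inhibition detected via diaphorase-coupled resazurin fluorescence, duplicate wells, with values from repeated runs averaged.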

The target in test [2] is T1, BCAT2. Kind of test: BCAT2 in vitro cell inhibition using engineered A549 cells (KMV cell assay, 13C6-KMV by LC-MS/MS). Type of test: cell-based. Also noted: The result was an engineered A549 cell line that expressed endogenous BCAT2; endogenous in cells; host or cells: A549 cells with MUT and BCAT1 knocked out by CRISPR/CAS9; key to BCAT2 Cell Inhibition: A: less than or equal to 0.100 μM; B: greater than 0.100 and less than or equal to 0.500 μM; C: greater than 0.500 and less than or equal to 1.000 μM; d: greater than 1.000 μM; E: no fit.

Several values for one entry are separate records, joined by “and”; a condition that tells them apart may be missing. Identical values can stand only once. Bounds are passed on as bounds.

As a reminder, the IC50 is the concentration at which inhibition is half-maximal. Turning to `CO[C@@H]1C[C@@H](NC(=O)c2ncc(Cl)s2)C[C@@H](n2c(CC(C)C)nc3cnc(-c4ccccn4)cc32)C1` (stereo in doubt) [Example 426, 5-chloro-N-((1S,3R,5R)-3-(2-isobutyl-6-(pyridin-2-yl)-1H-imidazo[4,5-c]pyridin-1-yl)-5-methoxycyclohexyl)thiazole-2-carboxamide], the half-inhibitory concentration (IC50) against BCAT2 [1] is no more than 100 nM; on hBCAT1, 500 to 1000 nM; against BCAT2 [2], 100 to 500 nM.

On to `O=C(N[C@H]1CCC[C@@H](n2c(-c3ccccn3)nc3cnc(-c4nc[nH]n4)cc32)C1)c1ncc(Cl)s1` [Example 184, 5-chloro-N-((1S,3R)-3-(2-(pyridin-2-yl)-6-(1H-1,2,4-triazol-3-yl)-1H-imidazo[4,5-c]pyridin-1-yl)cyclohexyl)thiazole-2-carboxamide], for which the half-maximal inhibitory concentration (IC50) on BCAT2 [1] is no more than 100 nM; against hBCAT1, less than 500 nM; on BCAT2 [2] it was no more than 100 nM.

In the case of `Cc1noc(C)c1-c1nc2cnc(-n3nccn3)cc2n1[C@@H]1CCC[C@H](NC(=O)c2ncc(C(F)F)s2)C1` [Example 47, 5-(difluoromethyl)-N-((1S,3R)-3-(2-(3,5-dimethylisoxazol-4-yl)-6-(2H-1,2,3-triazol-2-yl)-1H-imidazo[4,5-c]pyridin-1-yl)cyclohexyl)thiazole-2-carboxamide], the results for the IC50 against BCAT2 [1] and against hBCAT1 were 500 to 1000 nM and greater than 5000 nM, respectively. Also, on BCAT2 [2], the “BCAT2 Cell Inhibition” value is reported as “E”.

On to `CC(C)Cc1nc2cnc(-n3nccn3)cc2n1[C@@H]1CCC[C@H](NC(=O)c2ncc(Cl)s2)[C@H]1O` [Example 227, 5-chloro-N-((1S,2R,3R)-2-hydroxy-3-(2-isobutyl-6-(2H-1,2,3-triazol-2-yl)-1H-imidazo[4,5-c]pyridin-1-yl)cyclohexyl)thiazole-2-carboxamide], for which the half-maximal inhibitory concentration (IC50) is no more than 100 nM against BCAT2 [1], less than 500 nM against hBCAT1 and no more than 100 nM against BCAT2 [2].

On to `CC(C)Cc1nc2cnc(-n3ncc(C(C)O)n3)cc2n1[C@@H]1CCC[C@H](NC(=O)c2ncc(Cl)s2)C1` (stereo partly drawn) [Example 350, 5-chloro-N-((1S,3R)-3-(6-(4-(1-hydroxyethyl)-2H-1,2,3-triazol-2-yl)-2-isobutyl-1H-imidazo[4,5-c]pyridin-1-yl)cyclohexyl)thiazole-2-carboxamide], for which the 50% inhibitory concentration (IC50) on BCAT2 [1] is no more than 100 nM; at hBCAT1, 500 to 1000 nM; against BCAT2 [2], 100 to 500 nM.

For `CNC(=O)c1cc2nc(CC(C)C)n([C@@H]3CCC[C@H](NC(=O)c4ncc(Cl)s4)[C@H]3O)c2cn1` (single isomer, unassigned) [Example 280], the figures for the IC50 against BCAT2 [1], against hBCAT1 and against BCAT2 [2] were no more than 100 nM, 1000 to 5000 nM and 500 to 1000 nM, respectively.

On to `O=C(N[C@H]1CCC[C@@H](n2c(-c3ncccc3F)nc3cnc(-n4ccnn4)cc32)C1)c1ncc(Br)s1` [Example 35, 5-bromo-N-((1S,3R)-3-(2-(3-fluoropyridin-2-yl)-6-(1H-1,2,3-triazol-1-yl)-1H-imidazo[4,5-c]pyridin-1-yl)cyclohexyl)thiazole-2-carboxamide], for which the figures for the IC50 at BCAT2 [1], against hBCAT1 and on BCAT2 [2] were no more than 100 nM, 1000 to 5000 nM and 500 to 1000 nM, respectively.

Regarding `O=C(N[C@H]1CCC[C@@H](n2c(-c3ncccc3F)nc3cnc(-n4cncn4)cc32)C1)c1ncc(C(F)F)s1` [Example 28, 5-(difluoromethyl)-N-((1S,3R)-3-(2-(3-fluoropyridin-2-yl)-6-(1H-1,2,4-triazol-1-yl)-1H-imidazo[4,5-c]pyridin-1-yl)cyclohexyl)thiazole-2-carboxamide], the 50% inhibitory concentration (IC50) is no more than 100 nM on BCAT2 [1], 1000 to 5000 nM at hBCAT1 and 500 to 1000 nM on BCAT2 [2].

As for `O=C(N[C@H]1C[C@H](O)C[C@@H](n2c(-c3ccccc3F)nc3cnc(-c4ccn[nH]4)cc32)C1)c1ncc(Cl)s1` (single isomer, unassigned) [Example 258], the values for the half-maximal inhibitory concentration (IC50) against BCAT2 [1], against hBCAT1 and against BCAT2 [2] were no more than 100 nM, less than 500 nM and no more than 100 nM, respectively.

On to `CO[C@H]1C[C@H](NC(=O)c2ncc(Cl)s2)C[C@H](n2c(CC(C)C)nc3cnc(-c4nc(C)co4)cc32)C1` [Example 409, 5-chloro-N-((1R,3S,5S)-3-(2-isobutyl-6-(4-methyloxazol-2-yl)-1H-imidazo[4,5-c]pyridin-1-yl)-5-methoxycyclohexyl)thiazole-2-carboxamide], for which the IC50 at BCAT2 [1] is no more than 100 nM; at hBCAT1, 500 to 1000 nM; against BCAT2 [2] it was 100 to 500 nM.

As to `Cc1coc(-c2cc3c(cn2)nc(CC(C)C)n3[C@@H]2CCC[C@H](NC(=O)c3ncc(Cl)s3)C2)n1` [Example 306, 5-chloro-N-((1S,3R)-3-(2-isobutyl-6-(4-methyloxazol-2-yl)-1H-imidazo[4,5-c]pyridin-1-yl)cyclohexyl)thiazole-2-carboxamide], the IC50 was no more than 100 nM against BCAT2 [1], 500 to 1000 nM on hBCAT1 and 100 to 500 nM against BCAT2 [2].

Take `CO[C@@H]1[C@@H](NC(=O)c2ncc(Cl)s2)CCC[C@H]1n1c(-c2ccccc2F)nc2cnc(-c3nc[nH]n3)cc21` [Example 234, 5-chloro-N-((1S,2R,3R)-3-(2-(2-fluorophenyl)-6-(1H-1,2,4-triazol-3-yl)-1H-imidazo[4,5-c]pyridin-1-yl)-2-methoxycyclohexyl)thiazole-2-carboxamide]: the IC50 on BCAT2 [1] was no more than 100 nM; on hBCAT1 it was 1000 to 5000 nM; against BCAT2 [2], 500 to 1000 nM.

As to `C#Cc1ccc(C(=O)N[C@H]2CCC[C@@H](n3c(CC(C)C)nc4cnc(-c5nc[nH]n5)cc43)C2)s1` [Example 341, 5-ethynyl-N-((1S,3R)-3-(2-isobutyl-6-(1H-1,2,4-triazol-3-yl)-1H-imidazo[4,5-c]pyridin-1-yl)cyclohexyl)thiophene-2-carboxamide], the IC50 on BCAT2 [1] was no more than 100 nM; at hBCAT1, 1000 to 5000 nM; against BCAT2 [2], no more than 100 nM.

With `CC1(Cc2nc3cnc(-c4nc[nH]n4)cc3n2[C@@H]2CCC[C@H](NC(=O)c3ncc(Cl)s3)C2)CC1` [Example 379, 5-chloro-N-((1S,3R)-3-(2-((1-methylcyclopropyl)methyl)-6-(1H-1,2,4-triazol-3-yl)-1H-imidazo[4,5-c]pyridin-1-yl)cyclohexyl)thiazole-2-carboxamide], the half-maximal inhibitory concentration (IC50) at BCAT2 [1] is no more than 100 nM; against hBCAT1 it was less than 500 nM; against BCAT2 [2] it was no more than 100 nM.

As for `CC(C)Cc1nc2cnc(-c3nc[nH]n3)cc2n1[C@@H]1CCC[C@H](NC(=O)c2ccc(Cl)s2)[C@H]1O` [Example 401, 5-chloro-N-((1S,2R,3R)-2-hydroxy-3-(2-isobutyl-6-(1H-1,2,4-triazol-3-yl)-1H-imidazo[4,5-c]pyridin-1-yl)cyclohexyl)thiophene-2-carboxamide], the IC50 was no more than 100 nM at BCAT2 [1], less than 500 nM against hBCAT1 and no more than 100 nM against BCAT2 [2].

Turning to `CC(=O)N1CC(NC(=O)c2ccc(Br)s2)CC(n2c(-c3ccccn3)nc3ccc(-c4ncon4)cc32)C1` (stereo not drawn) [Example 286, N-(5-(6-(1,2,4-oxadiazol-3-yl)-2-(pyridin-2-yl)-1H-benzo[d]imidazol-1-yl)-1-acetylpiperidin-3-yl)-5-bromothiophene-2-carboxamide], the IC50 was no more than 100 nM against BCAT2 [1], 1000 to 5000 nM against hBCAT1 and 100 to 500 nM against BCAT2 [2].

Consider `CC(=O)N1CC(NC(=O)c2ncc(C(F)F)s2)CC(n2c(-c3ccccc3F)nc3cnc(-c4ncco4)cc32)C1` (stereo not drawn) [Example 126, N-(1-acetyl-5-(2-(2-fluorophenyl)-6-(oxazol-2-yl)-1H-imidazo[4,5-c]pyridin-1-yl)piperidin-3-yl)-5-(difluoromethyl)thiazole-2-carboxamide], for which the half-maximal inhibitory concentration (IC50) against BCAT2 [1] was no more than 100 nM; at hBCAT1 it was less than 500 nM; against BCAT2 [2] it was no more than 100 nM.

For `COC(=O)c1cnn(-c2cc3c(cn2)nc(-c2ccccn2)n3[C@@H]2CCC[C@H](NC(=O)c3ncc(C(F)F)s3)C2)n1` [Example 64, methyl 2-(1-((1R,3S)-3-(5-(difluoromethyl)thiazole-2-carboxamido)cyclohexyl)-2-(pyridin-2-yl)-1H-imidazo[4,5-c]pyridin-6-yl)-2H-1,2,3-triazole-4-carboxylate], the IC50 against BCAT2 [1] was no more than 100 nM; at hBCAT1, 1000 to 5000 nM; against BCAT2 [2] it was 100 to 500 nM and 500 to 1000 nM.
